Among the data in the METLIN SMRT retention time set (Domingo-Almenara et al. 2019) are RP-LC retention time values, retold here.

The nature of the data set: gradient 5% acetonitrile 3 min, to 50% in 2 min, to 85% in 15 min, held 3 min, 100 µL/min. The settings on record: column: Zorbax Extend-C18 2.1 x 50 mm; eluents: water / acetonitrile, 0.1% formic acid. In outline:
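Each retention time is based on an adduct peak selected computationally and verified by manual inspection. Measurements used HPLC–quadrupole time-of-flight mass spectrometry in positive and negative ionization mode on mixtures of ~100 pure standards. Chromatography ran on a Zorbax Extend-C18 column (2.1 × 50 mm, 1.8 μm) at 100 μL/min with water and acetonitrile, each containing 0.1% formic acid, and dead and dwell volumes of 40 μL and 900 μL.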
Compound `Cc1ccc(CNC(=O)Cc2nnc(-c3ccccn3)o2)cc1` showed an RP-LC retention time of 692 s.

`CCC(C)NC(=O)CC1CCN(C(=O)c2ccc3oc(C4CC4)nc3c2)CC1` (stereo not drawn) displayed an RP-LC retention time of 710 s.

For `CCC(=O)N(C)CCc1noc(-c2ccc(C(=O)NCCN(C)C)cc2)n1`, the RP-LC retention time came out at 579 s.

For `COc1ccc(N2CC(c3noc(-c4ccc(C)cc4C)n3)CC2=O)cc1` (stereo not drawn), the RP-LC retention time turned out to be 1000 s.

`Cc1cccc(NC(=O)N2CCC3(CC2)NC(=O)c2ccc(F)cc2N3C)c1` gave an RP-LC retention time of 723 s.

For `Cc1nn(-c2nc(-c3ccc(F)cc3)cs2)c(C)c1CC(=O)Nc1ccc(Br)cc1`, the RP-LC retention time stood at 1240 s.

On to `CCN1C(=O)c2cccnc2Sc2cc(NC(=O)c3ccc(OC)c(F)c3)ccc21`, for which the RP-LC retention time was 836 s.

Compound `Cc1noc(C)c1-c1ccc(S(=O)(=O)Nc2ccc(C#N)cc2)cc1` registered an RP-LC retention time of 874 s.

`COC(=O)c1ccc(NC(=O)Cn2c(=O)c3cc(C)nn3c3ncccc32)cc1` showed an RP-LC retention time of 700 s.

As to `O=C(Cc1nnc(-c2ccc3ncccc3c2)o1)Nc1ccc(Cl)cc1`, the RP-LC retention time came out at 760 s.

`COc1ccc(-c2nnc(COc3cccc(NC(=O)c4nn(C)c5ccccc45)c3)o2)cc1` yielded an RP-LC retention time of 1040 s.

For `COc1ccc(NC(=O)N2CCC(C(=O)NCc3csc(-c4ccccc4)n3)CC2)c(OC)c1`, the RP-LC retention time was determined as 777 s.

In turn, `COc1ccc(CNc2c(C(=O)OC(C)C)cnc3nc(C)ccc23)cc1` had an RP-LC retention time of 740 s.

For the compound `O=C(NCc1ccc(Cl)cc1)C1CCN(C(=O)c2ncn3c2COC(c2ccccc2)C3)CC1` (stereo not drawn), the RP-LC retention time amounted to 802 s.

For `CCOC(=O)C1=C(CN2CCN(C(C)CC)CC2)NC(=O)NC1c1ccc(Cl)cc1` (stereo not drawn), the RP-LC retention time came to 663 s.

On to `O=C(C1CCCN(c2ncnc3c2nc2n3CCCCC2)C1)N1CCCCCC1` (stereo not drawn), for which the RP-LC retention time stood at 766 s.

On to `CCCn1c(CCNC(=O)c2cccc(F)c2)nc2cccnc21`, for which the RP-LC retention time came out at 644 s.

On to `C[C@H]1CN(C(=O)c2c[nH]c3ccccc23)C[C@@H]1c1nc(-c2cccnc2)no1`, for which the RP-LC retention time worked out at 711 s.

For the compound `CCOC(=O)c1sc(N2CCN(c3ccccc3)CC2)nc1N`, the RP-LC retention time is 931 s.

In the case of `CC(C)NC(=O)c1ccc(OCC2CCCN2C(=O)c2cc(F)ccc2Cl)cc1` (stereo not drawn), the RP-LC retention time was determined as 881 s.

`COc1ccc(NC(=O)c2c(OC)cc(=O)n3c2CCCC3)c(OC)c1` showed an RP-LC retention time of 877 s.

For `Cc1oc(-c2ccc(NC(=O)c3ccco3)cc2)nc1Cn1cccn1`, the RP-LC retention time was determined as 759 s.

Turning to `Cc1ccc(CNC(=O)c2ccc3c(c2)CC(=O)N3C)cc1C`, the RP-LC retention time was determined as 765 s.

Compound `Cc1ccc(CNC(=O)N2CCc3nc(-c4ccc(F)cc4)ncc3C2)cc1` came in with an RP-LC retention time of 952 s.

For the compound `Cc1csc(C(=O)Nc2ccc(N3CCCN(C(=O)C4CC4)CC3)cc2)c1`, the RP-LC retention time worked out at 735 s.

The compound `Cc1oc2ncnc(N3CCCCC3)c2c1C(=O)N(CCN(C)C)Cc1ccccc1` had an RP-LC retention time of 568 s.

With `Cc1nc(C)c(C(=O)N2CC(F)(F)C[C@H]2COc2ccc3c(c2)CCC3)s1`, the RP-LC retention time turned out to be 1080 s.

Compound `CCc1cc(C2CCCN2C(=O)NCc2cccc(OC)c2)on1` (stereo not drawn) displayed an RP-LC retention time of 855 s.

For `Cc1cccc(S(=O)(=O)N2CCC(C)(C(=O)NCc3ccccc3)CC2)c1`, the RP-LC retention time came out at 935 s.

As to `CN(C)c1ccc(-c2nc3cnc(Br)cn3c2Nc2ccc3c(c2)OCO3)cc1`, the RP-LC retention time is 894 s.

`CCC1CCCCN1C(=O)c1cnc2nc(C)ccc2c1Nc1cccc(C(=O)OC)c1` (stereo not drawn) showed an RP-LC retention time of 653 s.

For `Clc1cccc(-n2ncc3c(SCc4cccnc4)ncnc32)c1`, the RP-LC retention time was 820 s.

`COc1ccc(-c2nnc(-c3cccc([N+](=O)[O-])c3)o2)cc1` displayed an RP-LC retention time of 898 s.

Regarding `Cc1ccc(CNC(=O)c2sc(-c3cn(C)c4ncccc34)nc2C)cc1`, the RP-LC retention time was found to be 784 s.

The compound `CC(C)(C)c1ccc(-c2csc(N)n2)cc1` returned an RP-LC retention time of 666 s.

Regarding `COc1ccccc1CNC(=O)C1CCC(=O)N1S(=O)(=O)c1ccc(C)c(C)c1` (stereo not drawn), the RP-LC retention time was 913 s.

In the case of `COc1ccc(NC(=O)C2CCc3nc(N4CCCCC4)ncc3C2)cc1C(F)(F)F` (stereo not drawn), the RP-LC retention time worked out at 894 s.

`CCOC(=O)c1c(C)[nH]c(C(=O)N2CCC(CC(=O)NC(C)CC)CC2)c1C` (stereo not drawn) came in with an RP-LC retention time of 715 s.

For the compound `O=C(NCc1ccco1)c1cc(N2C(=O)CCS2(=O)=O)ccc1Cl`, the RP-LC retention time is 675 s.

The compound `COc1ccc(N2C=C(C#N)S(=O)(=O)c3ccc(C)cc32)c(OC)c1` displayed an RP-LC retention time of 930 s.

For `CC(=O)Nc1ccc(-c2noc(C3CCN(C(=O)C4CC4)CC3)n2)cc1`, the RP-LC retention time is 689 s.

The compound `CCC(C)C(NC(=O)c1ccc(F)c(Cl)c1)C(=O)Nc1nc2ccccc2[nH]1` (stereo not drawn) came in with an RP-LC retention time of 817 s.

Take `CC(C)OC(=O)CCC/C=C\C[C@@H]1[C@@H](/C=C/[C@@H](O)COc2cccc(C(F)(F)F)c2)[C@H](O)C[C@@H]1O`: the RP-LC retention time worked out at 955 s.

`CCNC(=O)c1cc(-c2ccc(F)cc2)n[nH]1` had an RP-LC retention time of 695 s.

Consider `CCN(c1ccccc1)S(=O)(=O)c1ccc2[nH]c(=O)[nH]c2c1`, for which the RP-LC retention time amounted to 655 s.

For `O=C(NCc1ccc2c(c1)OCO2)C1CCN(C(=O)C2Sc3ccccc3NC2=O)CC1` (stereo not drawn), the RP-LC retention time amounted to 703 s.

For the compound `COc1ccc2[nH]cc(CCNC(=O)C3CCCN(c4nc5ncccc5n5cccc45)C3)c2c1` (stereo not drawn), the RP-LC retention time came out at 623 s.

`CCCCNC(=O)C1c2cc(OC)c(OC)cc2C(=O)N(C)C1c1ccc(OC)c(OC)c1` (stereo not drawn) displayed an RP-LC retention time of 710 s.

On to `COc1ccc(OC)c(S(=O)(=O)Nc2ccc(Oc3nc4ccccc4n4cnnc34)cc2)c1`, for which the RP-LC retention time worked out at 766 s.

On to `CCN(CC)C(=O)c1ccc2oc(CN3CCN(C(=O)NCC(C)C)CC3)nc2c1`, for which the RP-LC retention time is 624 s.

In the case of `CCn1nc(C)c(CCNC(=O)c2cc3c(=O)n(Cc4ccco4)ccc3nc2C)c1C`, the RP-LC retention time was 610 s.

As for `Cc1ccc(S(=O)(=O)N2CCC(c3noc(-c4cccc(F)c4)n3)CC2)cc1`, the RP-LC retention time was 1160 s.

In turn, `O=C(NCCc1ccco1)c1ccc2c(c1)NC(=O)C1CCCCN21` (stereo not drawn) had an RP-LC retention time of 739 s.

`COc1cccc(C(O)CN2CCN(c3cccc(C)c3)CC2)c1` (stereo not drawn): the RP-LC retention time came to 663 s.

With `O=C(NCc1ccccc1)C1CCN(c2cnc3nccnc3c2)CC1`, the RP-LC retention time was 662 s.

As to `O=C(Cn1cnc(-c2cccs2)cc1=O)NCc1nc2ccccc2[nH]1`, the RP-LC retention time was 570 s.

The compound `CCCNS(=O)(=O)c1cc(-c2nnc(-c3ccccc3)o2)ccc1OC` yielded an RP-LC retention time of 891 s.

`CN(CCc1ccc(Cl)c(Cl)c1)CCN1CCCC1` came in with an RP-LC retention time of 646 s.

`CCOC(=O)C1CCCN(C(=O)C2CCN(c3cc(N4CCCCC4)ncn3)CC2)C1` (stereo not drawn) returned an RP-LC retention time of 666 s.

As to `CCCn1c(=O)c(C)nc2cc(-c3noc(-c4ccsc4)n3)ccc21`, the RP-LC retention time is 1080 s.

`CSc1cccc(NC(=O)C2CCN(S(=O)(=O)c3ccc4[nH]c(=O)ccc4c3)CC2)c1` had an RP-LC retention time of 784 s.

For the compound `Cc1ccc2c(c1)N(S(C)(=O)=O)CCC(C(=O)Nc1ccc(F)c(F)c1)O2` (stereo not drawn), the RP-LC retention time is 960 s.

`CCn1c(C)c(-c2nc(C3CC3)no2)c(S(=O)(=O)NC2CCCC2)c1C`: the RP-LC retention time is 1060 s.

For the compound `CC1=C(c2ccccc2)S(=O)(=O)N=C1N1CCCN(C(=O)C2CCC2)CC1`, the RP-LC retention time came to 769 s.

`Cc1ccc(CNC(=O)C2CCN(Cc3cc4ccccc4n3Cc3ccccc3C)CC2)o1` yielded an RP-LC retention time of 800 s.

`O=S(=O)(CCc1ccccc1)N1CCN(c2ccc3nnc(-c4ccco4)n3n2)CC1` yielded an RP-LC retention time of 752 s.

`CC(C)c1ccc2c(c1)-c1ccccc1S(=O)(=O)N2CC(=O)NCCCN1CCOCC1` came in with an RP-LC retention time of 694 s.

Take `O=c1[nH]c2ccc(S(=O)(=O)Nc3cccc(C(F)(F)F)c3)cc2[nH]1`: the RP-LC retention time is 664 s.

For `CC1CCN(c2ncc3c(n2)CCN(Cc2ccc(N(C)C)cc2)C3)CC1`, the RP-LC retention time worked out at 757 s.

As for `Cn1cnc(S(=O)(=O)N2CCC(C(=O)N3CCN(c4cccc(Cl)c4)CC3)CC2)c1`, the RP-LC retention time came out at 780 s.

In turn, `Cc1ccc(-n2c(N3CCCC(C(=O)NCCc4cccs4)C3)nc3ccsc3c2=O)cc1` (stereo not drawn) registered an RP-LC retention time of 913 s.

For the compound `CS(=O)(=O)N(Cc1cccnc1)C1CN(C(=O)Nc2ccc3c(c2)OCCO3)C1`, the RP-LC retention time came out at 551 s.

`O=C(Nc1ccc2oc(-c3ccccc3)nc2c1)C1CCN(c2cnn(Cc3ccccc3)c(=O)c2)C1` (stereo not drawn): the RP-LC retention time stood at 923 s.

Compound `CC1=CC(=O)C2=C(C)C[C@H](O)[C@H]3[C@H](C)C(=O)O[C@@H]3C12` (stereo partly drawn) displayed an RP-LC retention time of 725 s.

Compound `COc1cccc(NC(=O)Cn2nc(N3CCSCC3)c3ccccc3c2=O)c1` yielded an RP-LC retention time of 908 s.

Turning to `CCOC(=O)c1nc(NCCCN2CCN(c3ccc(F)cc3)CC2)c2ccccc2n1`, the RP-LC retention time is 647 s.

Consider `O=C(C1=CN(c2ccc(Oc3ccccc3)cc2)c2cc(F)ccc2S1(=O)=O)N1CCOCC1`, for which the RP-LC retention time is 958 s.

Consider `Cc1nc2cc(-c3noc(-c4ccc(F)cc4)n3)ccc2n(C)c1=O`, for which the RP-LC retention time amounted to 1030 s.
